The source made the active and inactive calls. The calls are words filed in the database; no cut-off is given here.
Key:
[1] = MRT last in Balb/c mouse at 10 mg/kg, ip measured upto 24 hrs by LC-MS/MS analysis; format: ADME, organism-based; settings: in vivo
[2] = Toxicity in Balb/c mouse assessed as side effects at 10 mg/kg, ip measured upto 24 hrs by LC-MS/MS analysis; format: organism-based; settings: in vivo
[3] = target: T1, Protein cereblon/Tyrosine-protein kinase ITK/TSK (Homo sapiens, UniProt Q08881+Q96SW2); assay: PROTAC activity at CRBN/ITK in human Jurkat cells assessed as induction of ITK degradation at 100 nM pretreated with proteosome inhibitor carfilzomib for 1 hr followed by compound addition and measured after 2 hrs by Western blot analysis; format: cell-based
Target sequence in this assay (Q08881 whole entry, looked up): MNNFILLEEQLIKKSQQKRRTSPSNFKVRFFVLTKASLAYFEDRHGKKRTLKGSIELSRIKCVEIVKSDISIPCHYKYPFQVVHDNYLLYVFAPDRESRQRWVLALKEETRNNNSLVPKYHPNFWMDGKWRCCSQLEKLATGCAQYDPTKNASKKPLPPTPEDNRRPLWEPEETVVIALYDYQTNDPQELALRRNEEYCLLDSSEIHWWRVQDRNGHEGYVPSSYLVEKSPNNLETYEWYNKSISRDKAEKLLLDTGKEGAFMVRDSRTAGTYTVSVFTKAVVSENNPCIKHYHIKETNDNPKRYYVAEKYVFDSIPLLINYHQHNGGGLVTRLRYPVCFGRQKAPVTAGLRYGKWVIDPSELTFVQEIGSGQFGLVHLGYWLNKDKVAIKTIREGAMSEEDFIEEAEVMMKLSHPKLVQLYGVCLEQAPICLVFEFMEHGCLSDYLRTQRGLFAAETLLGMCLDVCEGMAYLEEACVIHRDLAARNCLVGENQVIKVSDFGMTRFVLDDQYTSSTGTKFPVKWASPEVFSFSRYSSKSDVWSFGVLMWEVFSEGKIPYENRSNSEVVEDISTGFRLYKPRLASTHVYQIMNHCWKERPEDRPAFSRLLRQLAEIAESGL
Target sequence in this assay (Q96SW2 whole entry, looked up): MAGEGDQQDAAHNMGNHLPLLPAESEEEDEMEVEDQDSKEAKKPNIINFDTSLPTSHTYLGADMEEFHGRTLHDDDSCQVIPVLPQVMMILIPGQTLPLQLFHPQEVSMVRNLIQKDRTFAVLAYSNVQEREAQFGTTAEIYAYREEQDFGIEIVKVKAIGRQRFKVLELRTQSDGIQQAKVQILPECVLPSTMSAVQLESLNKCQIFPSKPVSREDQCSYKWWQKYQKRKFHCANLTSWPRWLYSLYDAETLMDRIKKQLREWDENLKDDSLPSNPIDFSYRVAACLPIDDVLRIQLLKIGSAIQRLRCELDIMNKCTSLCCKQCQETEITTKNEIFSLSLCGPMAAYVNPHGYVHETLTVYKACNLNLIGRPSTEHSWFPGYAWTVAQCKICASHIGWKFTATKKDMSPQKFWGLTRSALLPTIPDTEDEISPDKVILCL

[4] = MRT last in Balb/c mouse at 5 mg/kg, iv measured upto 24 hrs by LC-MS/MS analysis; format: ADME, organism-based; settings: in vivo, iv, 5 mg/kg, 24 h
Interleukin-2 = Interleukin-2 (Homo sapiens, UniProt P60568); assay: Inhibition of IL-2 in human Jurkat cells pretreated with compound for 4 hrs followed by anti-CD3/CD28 stimulation by ELISA analysis; format: cell-based
Sequence of Interleukin-2 (P60568 whole entry): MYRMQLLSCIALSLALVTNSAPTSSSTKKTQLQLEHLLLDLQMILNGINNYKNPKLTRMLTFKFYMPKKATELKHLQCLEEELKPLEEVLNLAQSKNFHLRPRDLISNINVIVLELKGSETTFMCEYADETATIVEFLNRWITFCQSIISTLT

[5] = target: T2, Tyrosine-protein kinase ZAP-70 (Homo sapiens) (UniProt P43403); assay: Induction of degradation of ZAP-70 in human Jurkat cells at 0.01 to 10 uM by immunoblotting analysis; format: cell-based; settings: dose 0.01-10 µM
T2 sequence (whole entry): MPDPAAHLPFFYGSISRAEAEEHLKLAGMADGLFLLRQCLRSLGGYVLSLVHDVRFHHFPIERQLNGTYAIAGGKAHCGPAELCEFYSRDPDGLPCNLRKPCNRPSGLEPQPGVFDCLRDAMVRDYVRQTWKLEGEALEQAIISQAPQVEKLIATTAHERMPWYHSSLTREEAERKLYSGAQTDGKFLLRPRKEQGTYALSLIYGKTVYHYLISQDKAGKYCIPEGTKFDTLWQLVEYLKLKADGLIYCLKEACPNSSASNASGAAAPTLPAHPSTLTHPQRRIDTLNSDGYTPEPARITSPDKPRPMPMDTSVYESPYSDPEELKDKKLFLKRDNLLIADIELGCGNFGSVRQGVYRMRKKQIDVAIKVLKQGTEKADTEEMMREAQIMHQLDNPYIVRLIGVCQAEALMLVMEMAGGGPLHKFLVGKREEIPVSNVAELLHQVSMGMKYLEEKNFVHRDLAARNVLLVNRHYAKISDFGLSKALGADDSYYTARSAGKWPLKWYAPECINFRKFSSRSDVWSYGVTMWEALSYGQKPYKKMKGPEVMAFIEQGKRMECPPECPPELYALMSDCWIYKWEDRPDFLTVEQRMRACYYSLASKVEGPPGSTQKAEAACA

Jurkat = assay: Inhibition of TCR signalling in human Jurkat cells assessed as reduction in ERK(T202/Y204) phosphorylation preincubated with cells for 12 hrs followed by anti-CD-2 antibody stimulation for 5 mins by Western blot analysis; format: cell-based; settings: dose 0.01-3 µM
[6] = AUC (0 to t) in Balb/c mouse at 10 mg/kg, ip measured upto 24 hrs by LC-MS/MS analysis; format: ADME, organism-based; design: time < 24 hrs, dose 10 mg/kg, route ip; settings: in vivo
[7] = target: Tyrosine-protein kinase Lck (Homo sapiens) (UniProt P06239); assay: Induction of degradation of LCK in human Jurkat cells at 0.01 to 10 uM by immunoblotting analysis; format: cell-based; settings: dose 0.01-10 µM
Sequence of Tyrosine-protein kinase Lck (Homo sapiens) (P06239 2-509 limits assumed): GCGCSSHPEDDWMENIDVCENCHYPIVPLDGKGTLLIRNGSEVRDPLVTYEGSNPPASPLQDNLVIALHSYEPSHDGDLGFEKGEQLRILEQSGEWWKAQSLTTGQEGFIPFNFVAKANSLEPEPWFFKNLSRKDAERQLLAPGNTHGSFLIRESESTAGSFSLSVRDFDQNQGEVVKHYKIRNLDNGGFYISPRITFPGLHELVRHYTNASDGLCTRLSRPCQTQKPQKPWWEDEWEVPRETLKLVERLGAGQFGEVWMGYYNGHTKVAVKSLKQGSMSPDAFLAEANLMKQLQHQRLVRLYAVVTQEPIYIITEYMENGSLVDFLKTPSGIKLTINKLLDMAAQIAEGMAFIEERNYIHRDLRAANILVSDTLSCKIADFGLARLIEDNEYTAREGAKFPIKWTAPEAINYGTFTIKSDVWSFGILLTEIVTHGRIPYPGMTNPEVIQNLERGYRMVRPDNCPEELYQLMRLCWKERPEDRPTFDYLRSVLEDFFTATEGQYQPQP

[8] = target: T1, Protein cereblon/Tyrosine-protein kinase ITK/TSK; assay: PROTAC activity at CRBN/ITK in human Jurkat cells assessed as […] ITK degradation at 300 nM incubated for 8 hrs by tandem mass tag quantitative proteomic analysis; format: cell-based
Target sequence in this assay (Q08881 whole entry, looked up): as the sequence (Q08881 whole entry, looked up) above
Target sequence in this assay (Q96SW2 whole entry, looked up): as the sequence (Q96SW2 whole entry, looked up) above

[9] = target: T1, Protein cereblon/Tyrosine-protein kinase ITK/TSK; assay: PROTAC activity at CRBN/ITK in human Jurkat cells assessed as maximum degradation at 0.01 to 10 uM by Western blot analysis relative to control; format: cell-based; settings: dose 0.01-10 µM
Target sequence in this assay (Q08881 whole entry, looked up): as the sequence (Q08881 whole entry, looked up) above
Target sequence in this assay (Q96SW2 whole entry, looked up): as the sequence (Q96SW2 whole entry, looked up) above

[10] = target: T1, Protein cereblon/Tyrosine-protein kinase ITK/TSK; assay: PROTAC activity at CRBN/ITK in human Jurkat cells assessed as downregulation of ITK protein at 100 nM preincubated with cells for 12 hrs followed by compound washout measured after 24 hrs; format: cell-based
Target sequence in this assay (Q08881 whole entry, looked up): as the sequence (Q08881 whole entry, looked up) above
Target sequence in this assay (Q96SW2 whole entry, looked up): as the sequence (Q96SW2 whole entry, looked up) above

[11] = Bioavailability in Balb/c mouse at 10 mg/kg, ip measured upto 24 hrs by LC-MS/MS analysis; format: ADME, organism-based; settings: in vivo
[12] = target: T1, Protein cereblon/Tyrosine-protein kinase ITK/TSK; assay: PROTAC activity at CRBN/ITK in human Jurkat cells assessed as residual activity at 10 uM incubated for 16 hrs relative to control; format: cell-based
Target sequence in this assay (Q08881 whole entry, looked up): as the sequence (Q08881 whole entry, looked up) above
Target sequence in this assay (Q96SW2 whole entry, looked up): as the sequence (Q96SW2 whole entry, looked up) above

[13] = target: T1, Protein cereblon/Tyrosine-protein kinase ITK/TSK; assay: PROTAC activity at CRBN/ITK in human MOLT-4 cells assessed as induction of ITK degradation; format: cell-based
Target sequence in this assay (Q08881 whole entry): as the sequence (Q08881 whole entry, looked up) above
Target sequence in this assay (Q96SW2 whole entry): as the sequence (Q96SW2 whole entry, looked up) above

[14] = Volume of distribution at steady state in Balb/c mouse at 10 mg/kg, ip measured upto 24 hrs by LC-MS/MS analysis; format: ADME, organism-based; settings: in vivo
[15] = AUC (0 to infinity) in Balb/c mouse at 10 mg/kg, ip measured upto 24 hrs by LC-MS/MS analysis; format: ADME, organism-based; design: dose 10 mg/kg, time < 24 hrs, route ip; settings: in vivo

Structure (SMILES): CN(CCCCCC(=O)Nc1ccc2c(c1)C(=O)N(C1CCC(=O)NC1=O)C2=O)CC[C@@H](c1ccccc1)n1cc(NC(=O)c2n[nH]c3c2CCC(C)(C)C3)cn1.O=C(O)C(F)(F)F (some centres not stated)
- MRT last at 24 h [1]: 1.06 h
- Activity [2]: Non-Toxic
- Activity [3]: inactive
- MRTlast [4]: 0.39 h
- EC50 (Interleukin-2): 25.3 nM
- Activity [5]: inactive
- inhibition (Jurkat): Dose-Dependent Effect
- AUC(0-t) at 24 h [6]: 1560 ng·h/mL
- Activity [7]: inactive
- Activity [8]: Active
- Emax [9]: 99%
- Activity [10]: Active
- bioavailability [11]: 73.5%
- Activity [12]: 12%
- DC50 [13]: 6 nM
- Vdss [14]: 18.4 L/kg
- AUC(0-inf) [15]: 1590 ng·h/mL

From ChEMBL document CHEMBL5380833 (J Med Chem, 2023)
